Measurements: ChEMBL document CHEMBL1149462, “Total synthesis and biological evaluation of 22-hydroxyacuminatine” (J Med Chem, 2006)

Tests used:
[1] = tested on: P388; test: Cytotoxicity against P388 murine leukemic cell line; format: functional, cell-based; details: Mus musculus
[2] = tested on: P388CPT45; test: Cytotoxicity against topoisomerase 1-deficient subclone P388/CPT45 murine leukemic cell line; format: functional, cell-based; details: Mus musculus

O=c1c2cccc(CO)c2cc2n1Cc1cc3ccccc3nc1-2
IC50 [1]: 35.5 µM
IC50 [2]: 43 µM
